# Results: patent US11535627B2, “Pyrimidine derivative compound, pharmaceutically acceptable salt thereof, preparation process thereof, and pharmaceutical composition using the same” (Spark Biopharma, Inc., priority 2016, dated 2022)
# “Also recorded” adds a separate entry of the source.
# What was measured:
# [1] = target: LRS-RagD interaction (Homo sapiens, UniProt Q9P2J5); experiment: ELISA of LRS-RagD interaction; format: binding
# Method: His-tagged human LRS proteins were diluted in carbonate buffer (100 mM, pH 9.6) to the concentration of 0.5 ng μl^−1. […] Protein from each well was removed and washed three times with PBS mixed with 0.05% Tweed® 20 (PBST), subjected to blocking with PBS containing 5% bovine serum albumin (BSA) for 2 hours. Each well was washed with PBST, followed by the treatment of a compound and GST-tagged human RagD protein simultaneously for 3 hours. GST protein itself was used as a negative control. Each well was treated with GST antibody diluted in PBST and incubated at room temperature for 1 h. After washing with PBST, the HRP-conjugated anti-horse IgG secondary antibody was incubated at room temperature for 1 h. TMB was added to each well for colorimetric development. […] To stop the chemical reaction, the treatment with 1 m H3PO4 was done. Finally, absorbance at 450 nm were measured.
# [2] = target: T1, Human LRS proteins (Homo sapiens, UniProt Q9P2J5); experiment: Surface plasmon resonance (SPR) binding to LRS; settings: for concentration-dependent binding to LRS (SPR): purified LRS
# T1 construct: His
# Method: The dissociation […] constant (KD) toward His-LRS proteins was determined by using SPR instrument (Biacore T100) at the national center for inter-university research facilities (NCIRF) in Seoul National University. The carboxyl group on the surface of CMS chip was able to be replaced with protein by forming reactive succinimide ester with 1-ethyl-3-(3-dimethylaminopropyl)-carbodiimide (EDC) and N-hydroxysuccinimide (NHS). Human LRS proteins (1.5×PBS, pH 7.3) were immobilized on flow cell 2 (imed RU; 12000) by leading to amide bond formation with NHS ester. The residual NHS ester was quenched with 1 M ethanolamine-HCl (pH 8.0). Amide bond formation alone, without any protein t, was performed on flow cell 1 as a control. The immobilization process was proceeded on PBS buffer. After the immobilization of hLRS, compounds were flowed for 60 s at a flow rate of 20 μl min^−1 in various concentrations from 1 μM to […] was then flowed at the same flow rate for 200 s for dissociation of compounds. As a running buffer, 1×PBS (pH 7.3) containing 3% DMSO and 0.005% P2O was used. The experiment was performed at 25° C. Data analysis was done by using Biacore T100 Evaluation software. […] The dissociation constant (KD) was calculated by fitting to the 1:1 binding model.
# [3] = system: mTORC1; experiment: Western blotting, mTORC1 signalling pathway in HEK293T cells; format: cell-based; settings: for amount of phospho-T389 S6K1 / phosphorylation suppression of S6K1 by western blotting: 20 μM; for phosphorylation suppression of S6K1 by western blotting: phospho-T389 S6K1 relative to DMSO
# Method: HEK293T cell was cultured in Dulbecco modified eagle medium (DMEM) with 10% (v/v) fetal bovine serum (FBS) and 1% (v/v) antibiotic-antimycotic solution. […] The cells were cultured in 100-mm culture dish in an incubator at 37° C., in 5% CO2.
# Cells were lysed with Radio-ImmunoPrecipitation Assay (RIPA) buffer (50 mM Tris, pH 7.8, 150 mM NaCl, 0.5% deoxycholate, 1% IGEPAL CA-630, protease inhibitor cocktail, and phosphatase inhibitors). Protein was obtained by transferring supernatant after centrifugation at 15000 rpm for 20 min. Protein concentration was measured with Micro BCA™ protein assay kit. Overall protein sampling procedure was done at 4° C. Prepared protein samples were analyzed with SDS-PAGE. Protein after electrophoresis was transferred into nitrocellulose membrane. Membrane was blocked with TBST mixed with 2% BSA over at least 1 h at r.t. Primary antibodies were incubated overnight at 4° C. […] After washing with TBST, HRP-labeled anti-rabbit IgG secondary antibody was treated at room temperature for 1 h. After washing with TBST, developing by Amersham ECL prime solution was done. Chemiluminescent signal was imaged by ChemiDoc™ MP imaging system.
# [4] = system: AMPK signaling pathways; experiment: Western blotting, phospho-T172 AMPKα in HEK293T cells; format: cell-based
# Method: (§1) HEK293T cell was cultured in Dulbecco modified eagle medium (DMEM) with 10% (v/v) fetal bovine serum (FBS) and 1% (v/v) antibiotic-antimycotic solution. HeLa, DU145, and Ca Ski cells were cultured in RPMI 1640 medium with 10% (v/v) FBS and 1% (v/v) antibiotic-antimycotic solution. The cells were cultured in 100-mm culture dish in an incubator at 37° C., in 5% CO2.
# (§2) Cells were lysed with Radio-ImmunoPrecipitation Assay (RIPA) buffer (50 mM Tris, pH 7.8, 150 mM NaCl, 0.5% deoxycholate, 1% IGEPAL CA-630, protease inhibitor cocktail, and phosphatase inhibitors). Protein was obtained by transferring supernatant after centrifugation at 15000 rpm for 20 min. Protein concentration was measured with Micro BCA™ protein assay kit. Overall protein sampling procedure was done at 4° C. Prepared protein samples were analyzed with SDS-PAGE. Protein after electrophoresis was transferred into nitrocellulose membrane. Membrane was blocked with TBST mixed with 2% BSA over at least 1 h at r.t. Primary antibodies were incubated overnight at 4° C. […]
# [5] = system: mTORC2 signaling pathways; experiment: Western blotting, phospho-S473 Akt in HEK293T cells; format: cell-based
# Method: as §1, §2
# [6] = system: HeLa human cervical cancer cells; experiment: Western blot analysis of LC3 and p62 (autophagy) in HeLa cells; format: cell-based; settings: for LC3 I/LC3 II ratio / p62 level: 6 h, 200 nM Rap, 10 nM Baf, 20 μM 21f, compared with DMSO
# Method: as §1
# Cells were lysed with Radio-ImmunoPrecipitation Assay (RIPA) buffer (50 mM Tris, pH 7.8, 150 mM NaCl, 0.5% deoxycholate, 1% IGEPAL CA-630, protease inhibitor cocktail, and phosphatase inhibitors). Protein was obtained by transferring supernatant after centrifugation at 15000 rpm for 20 min. Protein concentration was measured with Micro BCA™ protein assay kit. Overall protein sampling procedure was done at 4° C. Prepared protein samples were analyzed with SDS-PAGE. Protein after electrophoresis was transferred into nitrocellulose membrane. Membrane was blocked with TBST mixed with 2% BSA over at least 1 h at r.t. Primary antibodies were incubated overnight at 4° C. The treatment concentration was as follows: Anti-LC3B (ab51520); 1:1000, anti-S6K1 (ab32359); 1:1000, anti-phospho-T389 S6K1 (ab2571); 1:800, anti-p62 (CST 5114); 1:1000, anti-glyceraldehyde-3-phosphate dehydrogenase (GAPDH) (CST 2118); 1:1000, anti-phospho-S65 4E-BP1 (CST 9451); 1:1000, anti-phospho-S757 ULK1 (CST 6888); 1:800, anti-phospho-S473 Akt (CST 4058); 1:1000, anti-phospho-T172 AMPKα (CST 2531). After washing with TBST, HRP-labeled anti-rabbit IgG secondary antibody was treated at room temperature for 1 h. After washing with TBST, developing by Amersham ECL prime solution was done. Chemiluminescent signal was imaged by ChemiDoc™ MP imaging system.
# [7] = system: HeLa cells; experiment: mCherry-GFP-LC3 puncta imaging; format: cell-based, human; settings: 6 h, 200 nM Rap, 10 nM Baf, 20 μM 21f
# Method: HeLa cells were seeded in chambered coverglass from Nunc and incubated for 24 h. mCherry-GFP-LC3 plasmid was transfected to the cells using Lipofectamine™ 2000 solution. Transfection was proceeded according to manufacturer's protocol.
# DeltaVision Elite imaging system was used for the imaging of mCherry-GFP-LC3 transfected HeLa cell. For live-cell imaging, chamber was maintained at 37° C. and in 5% CO2. […] The wavelength range of the used filters is as follows: mCherry (Excitation: 575/25 nm, Emission: 625/45 nm); GFP (Excitation: 475/28 nm, Emission: 525/48 nm). Images were processed and analyzed with SoftWorks deconvolution software.
# [8] = system: HEK293T cells; experiment: Cell proliferation assay (BrdU); format: cell-based; settings: 5 μM, in the presence of Leu
# Method: HEK293T cells were seeded in 96-well plate from CORNING. 24 h after seeding, the compound diluted with DMEM at 5 μM of final concentration was treated in cells while leucine-free DMEM was treated in cells as a control. Cell division assay was done with WSTs assay and BrdU colorimetric kit, following the manufacturer's protocol.
# [9] = system: mTORC1; experiment: Western blotting, mTORC1 signalling in Ca Ski cells; format: cell-based
# Method: as §1, §2
# [10] = system: mTORC1; experiment: Western blotting, mTORC1 signalling in DU145 cells; format: cell-based
# Method: as §1, §2
# [11] = HEK293T cells, 20, 10, 5 and 1 μM, 3 h
# Chain of LRS-RagD interaction (Q9P2J5 whole entry): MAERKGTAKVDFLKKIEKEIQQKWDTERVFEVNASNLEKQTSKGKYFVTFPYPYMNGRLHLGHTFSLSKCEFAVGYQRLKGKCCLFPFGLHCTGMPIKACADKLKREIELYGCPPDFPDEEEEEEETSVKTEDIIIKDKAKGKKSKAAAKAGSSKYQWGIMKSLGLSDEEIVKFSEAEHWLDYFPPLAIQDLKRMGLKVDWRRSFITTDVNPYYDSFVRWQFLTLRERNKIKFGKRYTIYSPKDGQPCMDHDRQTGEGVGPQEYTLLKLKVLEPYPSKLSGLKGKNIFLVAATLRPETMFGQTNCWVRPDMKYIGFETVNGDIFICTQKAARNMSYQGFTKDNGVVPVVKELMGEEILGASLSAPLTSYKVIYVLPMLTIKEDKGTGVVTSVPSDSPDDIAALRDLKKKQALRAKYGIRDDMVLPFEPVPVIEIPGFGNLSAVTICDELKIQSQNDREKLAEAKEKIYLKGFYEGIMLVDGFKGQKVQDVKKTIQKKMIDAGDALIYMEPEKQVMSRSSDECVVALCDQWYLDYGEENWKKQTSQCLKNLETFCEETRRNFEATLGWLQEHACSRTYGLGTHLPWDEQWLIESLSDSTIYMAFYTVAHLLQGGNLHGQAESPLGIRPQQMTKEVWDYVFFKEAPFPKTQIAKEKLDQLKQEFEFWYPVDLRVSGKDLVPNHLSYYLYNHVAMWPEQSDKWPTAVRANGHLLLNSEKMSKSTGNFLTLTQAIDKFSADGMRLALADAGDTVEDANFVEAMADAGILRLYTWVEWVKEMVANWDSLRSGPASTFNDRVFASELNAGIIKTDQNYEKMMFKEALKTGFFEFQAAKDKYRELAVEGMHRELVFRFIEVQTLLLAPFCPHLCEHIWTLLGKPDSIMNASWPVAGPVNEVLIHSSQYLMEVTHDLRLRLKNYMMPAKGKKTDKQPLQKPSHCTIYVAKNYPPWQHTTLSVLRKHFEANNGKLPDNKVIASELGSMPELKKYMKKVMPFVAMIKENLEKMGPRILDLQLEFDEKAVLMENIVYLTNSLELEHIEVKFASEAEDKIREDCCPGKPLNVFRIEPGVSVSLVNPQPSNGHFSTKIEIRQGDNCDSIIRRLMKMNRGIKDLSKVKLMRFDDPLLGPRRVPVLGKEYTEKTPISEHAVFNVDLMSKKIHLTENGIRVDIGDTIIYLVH
# T1 sequence (Q9P2J5 whole entry): as above
compound,measurement,setting,value
CN(Cc1ccccc1)c1ncnc2c1[C@@H]1OC[C@H](CN2)N1S(=O)(=O)c1cccc([N+](=O)[O-])c1,melting point,,101 to 103 °C
CN(Cc1ccccc1)c1ncnc2c1C1OC[C@@H](CN2)N1C(=O)OC(C)(C)C [Compound 14f],dose-dependent inhibition of the LRS-RagD interaction (dose-response curves in ELISA),[1],did not inhibit the LRS-RagD interaction in a dose-dependent manner
same,concentration-dependent binding to LRS (SPR),[2],did not bind to LRS in a concentration-dependent manner
CN(Cc1ccccc1)c1ncnc2c1[C@@H]1OC[C@H](CN2)N1C(=O)NCc1ccccc1 [Compound 15f],dose-dependent inhibition of the LRS-RagD interaction (dose-response curves in ELISA),[1],did not inhibit the LRS-RagD interaction in a dose-dependent manner
same,melting point,,67 to 69 °C
CN(Cc1ccccc1)c1ncnc2c1CN1[C@@H](CN2)COCS1(=O)=O [Compound 18f],dose-dependent inhibition of the LRS-RagD interaction (dose-response curves in ELISA),[1],did not inhibit the LRS-RagD interaction in a dose-dependent manner
same,melting point,,196 to 198 °C
CN(Cc1ccccc1)c1ncnc2c1CN1C(=O)COC[C@@H]1CN2 [Compound 19f],dose-dependent inhibition of the LRS-RagD interaction (dose-response curves in ELISA),[1],did not inhibit the LRS-RagD interaction in a dose-dependent manner
same,concentration-dependent binding to LRS (SPR),[2],did not bind to LRS in a concentration-dependent manner
CN(Cc1ccccc1)c1ncnc2c1CN1C[C@@H]1CN2Cc1ccccc1 (stereo partly drawn) [Compound 20f],dose-dependent inhibition of the LRS-RagD interaction (dose-response curves in ELISA),[1],inhibit the LRS-RagD interaction in a dose-dependent manner
same,reduction of LRS-RagD interaction by ELISA,[1],15.5%
same,amount of phospho-T389 S6K1,"[3]; HEK293T cells, 3 h",less than that of 21f
same,phosphorylation suppression of S6K1 by western blotting,"[3]; HEK293T cells, 3 h",16.4%
Cc1cc(C)cc(CN2C[C@H]3CN3Cc3c(N(C)Cc4ccccc4)ncnc32)c1 (stereo partly drawn) [Compound 21f],dose-dependent inhibition of the LRS-RagD interaction (dose-response curves in ELISA),[1],inhibit the LRS-RagD interaction in a dose-dependent manner
same,reduction of LRS-RagD interaction by ELISA,[1],30.2%
same,inhibition degree against phospho-S757 ULK1,"[3]; HEK293T cells, 0-24 h, 21f 10 μM, rapamycin 500 nM",high inhibition degree
same,"Phospho-T389 S6K1, time course","[3]; HEK293T cells, 10 μM, 0-24 h",reduced in cells treated with 21f as time passed
same,duration of the effect on mTORC1 within cells,"[3]; HEK293T cells, 10 μM, 0-24 h",at least 12 h
same,"phospho-S65 4E-BP1, time course","[3]; HEK293T cells, 10 μM, 0-24 h",reduced in cells treated with 21f as time passed
same,"phospho-S757 ULK1, time course","[3]; HEK293T cells, 10 μM, 0-24 h",reduced in cells treated with 21f as time passed
same,amount of phospho-T389 S6K1,"[3]; HEK293T cells, 3 h",reduced amount of phospho-T389 S6K1
same,phosphorylation suppression of S6K1 by western blotting,"[3]; HEK293T cells, 3 h",48.9%
same,Phospho-T389 S6K1,[3]; [11],reduced in cells treated with 21f in a dose-dependent manner
same,phospho-S65 4E-BP1,[3]; [11],reduced in cells treated with 21f in a dose-dependent manner
same,phospho-S757 ULK1,[3]; [11],reduced in cells treated with 21f in a dose-dependent manner
same,"phospho-T172 AMPKα, time course","[4]; HEK293T cells, 10 μM, 0-24 h",no effects
same,phospho-T172 AMPKα,[4]; [11],no effects
same,"phospho-S473 Akt, time course","[5]; HEK293T cells, 10 μM, 0-24 h",no effects
same,phospho-S473 Akt,[5]; [11],no effects
same,Kd,[2],4.5 µM
same,concentration-dependent binding to LRS (SPR),[2],concentration-dependent binding to LRS
same,LC3 I/LC3 II ratio,[6],lowering LC3 I/LC3 II ratio
same,p62 level,[6],stimulated the degradation of p62; also recorded: reducing p62 level
same,cellular level of LC3 II,[6]; in the presence of Leu,increased the cellular level of LC3 II
same,mCherry and GFP fluorescence (mCherry-GFP-LC3),[7],red fluorescence
same,cellular division level by BrdU assay,[8],suppressed cell proliferation even in the presence of Leu; also recorded: cellular division was inhibited as treatment time passed
same,"western blotting results, procedure of FIG. 15d",[9],same as those from HEK293T cells
same,"western blotting results, procedure of FIG. 15d",[10],same as those from HEK293T cells
C=CCN1C[C@H]2COC(=O)N2Cc2c(N(C)Cc3ccccc3)ncnc21 [Compound 22f],dose-dependent inhibition of the LRS-RagD interaction (dose-response curves in ELISA),[1],did not inhibit the LRS-RagD interaction in a dose-dependent manner
same,melting point,,89 to 91 °C
CN(Cc1ccccc1)c1ncnc2c1CN(C(=O)OC(C)(C)C)[C@@H]1C=CCN2C1 [Compound 23f],dose-dependent inhibition of the LRS-RagD interaction (dose-response curves in ELISA),[1],did not inhibit the LRS-RagD interaction in a dose-dependent manner
"CO/C1=C\C(C)=C\[C@@H](C)[C@@H](O)[C@@H](C)C/C(C)=C/C=C/[C@H](OC)[C@@H]([C@@H](C)[C@@H](O)[C@H](C)[C@@]2(O)C[C@@H](O)[C@H](C)[C@@H](C(C)C)O2)OC1=O [bafilomycin, reference compound]",LC3 I/LC3 II ratio,[6],increased ratio of LC3 I/LC3 II
same,p62 level,[6],accumulation of p62
same,mCherry and GFP fluorescence (mCherry-GFP-LC3),[7],yellow color
"CO[C@H]1C[C@@H]2CC[C@@H](C)[C@@](O)(O2)C(=O)C(=O)N2CCCC[C@H]2C(=O)O[C@H]([C@H](C)C[C@@H]2CC[C@@H](O)[C@H](OC)C2)CC(=O)[C@H](C)/C=C(\C)[C@@H](O)[C@@H](OC)C(=O)[C@H](C)C[C@H](C)/C=C/C=C/C=C/1C [rapamycin, reference compound]",duration of the effect on mTORC1 within cells,"[3]; HEK293T cells, 500 nM, 0 to 24 hours",at least 12 hours
